# Laboratory results taken from US20060293241A1, “Pharmaceutical composition comprising a factor VII polypeptide and epsilon-aminocaproic acid” (Novo Nordisk HealthCare A/G, priority 2001, published 2006).
# Assays:
# [1] = test system: Normal human plasma diluted 10-fold; test: Clot lysis assay (Example 1), turbidity at 650 nm; type: biochemical; conditions: in the presence of 10 nM FVIIa; t-PA 8 nM
# Method: Clot lysis assay: Normal human plasma diluted 10-fold with buffer (20 mM HEPES, 150 mM NaCl, 5 mM CaCl, pH 7.4) containing Innovin (Dade Behring, 2000-fold dilution), rFVIIa (Novo Nordisk A/S Bagsvaerd, Denmark, various concentrations) and t-PA (American Diagnostica, 8 nM) was added to 96-well ELISA plates and turbidity at 650 nm was measured over time at room temperature. Where indicated, epsilon-Aminocaproic Acid (Sigma, various concentrations) was included.
# [2] = test system: Normal human plasma (NHP); test: Clot lysis assay (Example 2), clot survival in NHP and NHP diluted 1:2 with plasma expander; type: biochemical; conditions: in combination with 40 nM FVIIa
# Method: Clot lysis assay: Normal human plasma (NHP) and NHP diluted 1:2 with plasma expander Macrodex or HES 200/0.5 used clinically for maintaining blood pressure under surgical procedures was mixed with lipidated recombinant TF (Innovin 1:60,000), CaCl2 10 mM, +/−FVIIa 40 nM, phosfatidylcolin/phosphateidylserine vesicles 6 μM, tPA […] and +/−the indicated doses of e-aminocaproic acid (EACA). Clot survival was measured as the time for clot start until the time for clot lysis.
smiles,measurement,setting,value
"NCCCCCC(=O)O [EACA, epsilon-aminocaproic acid]",effect on clot lysis time,[1],further prolongation of the clot lysis time
same,epsilon-Aminocaproic Acid concentration at which effect on clot lysis time was optimal,[1],1 µM
same,effect on clot survival time,[2],increase in clot survival time
